According to PubChem BioAssay (NCI):
Several values for one entry are separate records, joined by “and”; a condition that tells them apart may be missing. Equal values may be shown once.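 Cultured in 96-well plates, cells were exposed to test compound for 48 hours across five concentrations. GI50 is the concentration that inhibits growth by half. Definition used: TGI = concentration required for complete inhibition of growth.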

Tests used:
Assay in all cases: growth of human tumour cells (NCI), 48 h
[1] = system: NCI-H23 lung
[2] = system: DLD-1 colon
[3] = system: XF 498 CNS
[4] = system: ACHN renal
[5] = system: MALME-3M melanoma
[6] = system: HT29 colon
[7] = system: SNB-78 CNS
[8] = system: MDA-MB-435
[9] = system: T-47D breast
[10] = system: NCI/ADR-RES ovarian

Compound | TGI [1] | TGI [2] [µM] | TGI [3] [µM] | TGI [4] | TGI [5] | TGI [6] | TGI [7] [µM] | GI50 [8] | TGI [8] | GI50 [1] [µM] | GI50 [9] | GI50 [5] | GI50 [6] | GI50 [10] [µM] | TGI [10] | TGI [9] [µM] | GI50 [4] [µM] | GI50 [2] [µM]
COC(=O)C(C(=O)C(=O)Nc1ccc(C)cc1C)c1nc2ccc([N+](=O)[O-])cc2[nH]c1=O (stereo not drawn) | > 100 µM | > 100 | > 100 | > 100 µM | > 100 µM | > 100 µM | > 100 |  |  |  |  |  |  |  |  |  |  | 
CC(=O)Oc1cc(OC(C)=O)c2cc3c(cc2c1OC(C)=O)C(=O)C1(CCCC1)C3=O | 34.1 µM | 37 | 30 | 31.5 µM | 33.6 µM | 30 µM | 50 |  |  |  |  |  |  |  |  |  |  | 
NC(=O)N/N=C1/CCCC/C1=C\c1ccccc1 | > 100 µM | > 100 |  | > 100 µM | > 100 µM | > 100 µM | > 100 |  |  |  |  |  |  |  |  |  |  | 
CO[C@@]12[C@H](COC(N)=O)C3=C(C(=O)C(C)=C(N)C3=O)N1C[C@@H]1N[C@@H]12 | 1.43 µM and 3.86 µM and 4.56 µM | 17.2 |  | 4.88 µM and 1.76 µM | 4.06 µM and 6.53 µM and 4.03 µM | 12.3 µM and 13 µM and 23.7 µM |  | 2.14 µM and 2.91 µM and 1.53 µM | 6.92 µM and 12.7 µM and 15.3 µM | 0.77 | 2.25 µM and 1.41 µM | 2.26 µM and 1.38 µM | 1.45 µM and 0.542 µM | 3.83 | 20 µM and 21.4 µM and > 100 µM |  |  | 
c1cc(-c2cnn3nc(N4CCOCC4)ccc23)nc(NC2CC2)n1 | > 25 µM |  |  | > 25 µM | > 25 µM | > 25 µM |  | 9.94 µM | > 25 µM | 7.19 | 8.08 µM | 12.1 µM | 8.35 µM | 8.25 | > 25 µM | > 25 | 5.7 | 
Cc1cc(S(=O)(=O)Nc2nc3ccsc3c(=O)n2Cc2ccccc2)c(S)cc1Cl | 57.5 µM |  |  | > 100 µM | 50.1 µM | > 100 µM |  | 29.3 µM | 91.6 µM | 24.9 | 52.4 µM | 21.2 µM | 43.7 µM | 67.8 | > 100 µM | > 100 | 57.5 | 
CCCCCCCCCCCCCCCCCCOCC1(COP(=O)([O-])OCC[N+](C)(C)C)CCCO1 (stereo not drawn) | 31.9 µM | 12.5 | 20.5 | 19.4 µM | 26.2 µM | 12.4 µM | 29.5 |  |  |  |  |  |  |  |  |  |  | 
O=C(Nc1ccc([N+](=O)[O-])cc1)c1cc2ccccc2cc1O | 1.42 µM |  |  | 16.8 µM | 1.11 µM | > 29.8 µM |  | 0.321 µM | 1.64 µM | 0.294 | 0.39 µM | 0.258 µM | 3.52 µM | 0.314 | 3.13 µM | 8.89 | 0.38 | 
CC(C)(C)[Si](Nc1ccccc1)(c1ccccc1)c1ccccc1 | 32.8 µM |  | 27.8 | 30.1 µM | 41.8 µM | 28.7 µM | 30.4 |  |  |  |  |  |  |  |  |  |  | 
C[C@@]1(CBr)C[C@@](C)(/C=C/Cl)[C@@H](Cl)C[C@H]1Cl | 27.9 µM | 27.3 | 24.5 | 25.7 µM | 30.4 µM | 22.4 µM | 14 |  |  |  |  |  |  |  |  |  |  | 
COc1cc(CCC(=O)NS(=O)(=O)c2ccccc2)cc(OC)c1OC | > 100 µM | > 100 | > 100 | > 100 µM | > 100 µM | > 100 µM | > 100 |  |  |  |  |  |  |  |  |  |  | 
NC(=O)C12CCC1C1CCCCC12N1CCOCC1 (stereo not drawn) | > 100 µM | > 100 |  | > 100 µM | > 100 µM | > 100 µM | > 100 |  |  |  |  |  |  |  |  |  |  | 
CC(=O)[CH-]C(=O)c1ccccc1.CC(=O)[CH-]C(=O)c1ccccc1.CC[O-].O=C1C=C([O-])C(=O)c2ccccc21.[Ti+4] | > 100 µM | > 100 |  | > 100 µM | > 100 µM | > 100 µM |  |  |  | 10.8 |  | 34.8 µM | 41 µM |  |  |  | 66.5 | > 100
Cc1cccc2cc3ccc4ccccc4c3cc12 | > 100 µM |  |  | > 100 µM | > 100 µM | 97.8 µM |  |  | > 100 µM |  |  |  |  |  | > 100 µM | > 100 |  | 
CO[C@H]1/C=C/C[C@H](C)[C@@H](C)S(=O)(=O)NC(=O)c2ccc3c(c2)N(C[C@@H]2CC[C@H]21)C[C@@]1(CCCc2cc(Cl)ccc21)CO3 | 4.12 µM |  |  | 11.8 µM | 4.14 µM | 5.16 µM |  | 1.48 µM | 3.14 µM | 1.58 | 2.75 µM | 1.97 µM | 2.13 µM | 2.23 | 6.6 µM | 10.8 | 3.39 | 
O=C1/C(=C/c2ccc(C(F)(F)F)cc2)COc2ccc(O)cc21 | 5.38 µM |  |  | 3.53 µM | 5.1 µM | 4.32 µM |  | 2.41 µM | 6.54 µM | 2.14 | 2.03 µM | 2.05 µM | 2.03 µM | 2.15 | 6.42 µM | 4.76 | 1.84 | 
COc1cc(C(=C2SCCS2)c2nccc3cc(OC)c(OC)cc23)c([N+](=O)[O-])cc1OC | > 100 µM | > 100 | > 100 | > 100 µM | > 100 µM | > 100 µM | > 100 |  |  |  |  |  |  |  |  |  |  | 
CN(C)NC(=S)NC12CC3CC(CC(C3)C1)C2 | > 100 µM | > 100 | > 100 | > 100 µM | > 100 µM | > 100 µM | > 100 |  |  |  |  |  |  |  |  |  |  | 
C/C(CC(=O)Nc1ccc(NC(=O)/C(C)=N/NS(=O)(=O)c2ccc(C)cc2)cc1)=N\NS(=O)(=O)c1ccc(C)cc1 | > 100 µM | > 100 |  | > 100 µM | > 100 µM | > 100 µM | > 100 |  |  |  |  |  |  |  |  |  |  | 
